From patent US11596639B2, “Substituted indole Mcl-1 inhibitors” (Vanderbilt University, priority 2016, dated 2023)
Where two headings read alike, the source gives them in different places.

What was measured:
[1] = system: H929 human cancer cell lines; assay: Cellular viability / proliferation (Cell TiterGlo, 72 h); format: cell-based
Procedure, shortened: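 Compounds were added as 2-fold serial dilutions from 50 μM (final DMSO <1%) to H929 cells seeded 1,000 per well in 10% FBS medium one day earlier.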

[2] = biological target: Mcl-1 (Homo sapiens (Human), UniProt Q07820); assay: Fluorescence polarization anisotropy (FPA) competition assay, FITC-Bak or FITC-Bim BH3 peptide; format: binding; settings: read-out: Ki for Inhibition of Mcl-1 by FPA assay
Chain of Mcl-1 (Q07820 172-327): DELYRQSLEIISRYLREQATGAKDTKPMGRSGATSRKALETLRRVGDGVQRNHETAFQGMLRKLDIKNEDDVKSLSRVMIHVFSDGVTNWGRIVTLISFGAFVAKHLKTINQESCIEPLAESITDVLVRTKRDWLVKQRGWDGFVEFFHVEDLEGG

[3] = Homo sapiens, NCI-H929, 72 h, read-out: GI50 on cellular proliferation of H929 human cancer cell lines, H929 cells, 72 h, Cell TiterGlo, 10% FBS
[4] = H929 cells, 72 h, Cell TiterGlo, 10% FBS, read-out: GI50 on cellular proliferation of H929 human cancer cell lines

`Cc1cc(OCCCc2c3n(c4c(-c5c(C)ncnc5C)c(Cl)ccc24)CCCN(c2cn(C)c4cc(C(=O)O)ccc24)C3=O)cc(C)c1Cl` [Example 176, 3-[8-Chloro-11-[3-(4-chloro-3,5-dimethyl-phenoxy)propyl]-7-(4,6-dimethylpyrimidin-5-yl)-1-oxo-4,5-dihydro-3H-[1,4]diazepino[1,2-a]indol-2-yl]-1-methyl-indole-6-carboxylic acid] was tested, and the GI50 [1, 3] was 410 nM and the Ki [2] was < 1 nM.

For `Cc1cc(OCCCc2c3n(c4c(-c5c(C)nn(C)c5C)c(Cl)ccc24)[C@H](C)CN(c2cccc4c2cc(C(=O)O)n4Cc2ccccn2)C3=O)cc(C)c1Cl` [Example 352, (R)-4-(7-chloro-10-(3-(4-chloro-3,5-dimethylphenoxy)propyl)-4-methyl-1-oxo-6-(1,3,5-trimethyl-1H-pyrazol-4-yl)-3,4-dihydropyrazino[1,2-a]indol-2(1H)-yl)-1-(pyridin-2-ylmethyl)-1H-indole-2-carboxylic acid], the GI50 [1, 3] was 5100 nM and the Ki [2] was 2.8 nM.

`Cc1cc(OCCCc2c3n(c4c(-c5c(C)nn(C)c5C)c(Cl)ccc24)[C@H](C)CN(c2cn(C)c4ccc(C(=O)NNc5ccccc5)cc24)C3=O)cc(C)c1Cl` [Example 427, (R)-3-(7-Chloro-10-(3-(4-chloro-3,5-dimethylphenoxy)propyl)-4-methyl-1-oxo-6-(1,3,5-trimethyl-1H-pyrazol-4-yl)-3,4-dihydropyrazino[1,2-a]indol-2(1H)-yl)-1-methyl-N′-phenyl-1H-indole-5-carbohydrazide] was tested, and the GI50 [1, 3] was 490 nM and the Ki [2] was 1.2 nM.

`Cc1cc(OCCCc2c3n(c4c(-c5c(C)nn(C)c5C)c(Cl)ccc24)[C@H](C)CN(c2ccnc4ccc(-c5nnn(C)n5)cc24)C3=O)cc(C)c1Cl` [Example 425, (R)-7-Chloro-10-(3-(4-chloro-3,5-dimethylphenoxy)propyl)-4-methyl-2-(6-(2-methyl-2H-tetrazol-5-yl)quinolin-4-yl)-6-(1,3,5-trimethyl-1H-pyrazol-4-yl)-3,4-dihydropyrazino[1,2-a]indol-1(2H)-one] was tested, and the GI50 [1, 3] was 1400 nM and the Ki [2] was 1.8 nM.

Work on `Cc1cc(OCCCc2c3n(c4c(-c5c(C)nn(C)c5C)c(Cl)ccc24)CCCN(c2cc(C(=O)O)cc4c2N(C)CCO4)C3=O)cc(C)c1Cl` [Example 61, 5-[8-chloro-11-[3-(4-chloro-3,5-dimethyl-phenoxy)propyl]-1-oxo-7-(1,3,5-trimethylpyrazol-4-yl)-4,5-dihydro-3H-[1,4]diazepino[1,2-a]indol-2-yl]-4-methyl-2,3-dihydro-1,4-benzoxazine-7-carboxylic acid] yielded a GI50 [1, 3] of 8200 nM and a Ki [2] of 5.7 nM.

For `Cc1cc(OCCCc2c3n(c4c(-c5c(C)nn(C)c5C)c(Cl)ccc24)[C@H](C)CN(c2cn(C)c4ccc(-c5cccnn5)cc24)C3=O)cc(C)c1Cl` [Example 424, (R)-7-Chloro-10-(3-(4-chloro-3,5-dimethylphenoxy)propyl)-4-methyl-2-(1-methyl-5-(pyridazin-3-yl)-1H-indol-3-yl)-6-(1,3,5-trimethyl-1H-pyrazol-4-yl)-3,4-dihydropyrazino[1,2-a]indol-1(2H)-one], the GI50 [1, 3] was 1300 nM and the Ki [2] was 2.6 nM.

For `Cc1cc(OCCCc2c3n(c4c(-c5c(C)nn(C)c5C)c(Cl)ccc24)[C@H](C)CN(c2cc(C(=O)O)c4c(cnn4C)c2)C3=O)cc(C)c1Cl` [Example 98, (R)-5-(7-chloro-10-(3-(4-chloro-3,5-dimethylphenoxy)propyl)-4-methyl-1-oxo-6-(1,3,5-trimethyl-1H-pyrazol-4-yl)-3,4-dihydropyrazino[1,2-a]indol-2(1H)-yl)-1-methyl-1H-indazole-7-carboxylic acid], the GI50 [1, 3] was 6600 nM and the Ki [2] was < 1 nM.

`Cc1cc(N2C[C@@H](C)n3c(c(CCCOc4cc(C)c(Cl)c(C)c4)c4ccc(Cl)c(-c5c(C)nc(CN6CCOCC6)nc5C)c43)C2=O)c2c(c1)cc(C(=O)O)n2C` [Example 416, (R)-7-(7-Chloro-10-(3-(4-chloro-3,5-dimethylphenoxy)propyl)-6-(4,6-dimethyl-2-(morpholinomethyl)pyrimidin-5-yl)-4-methyl-1-oxo-3,4-dihydropyrazino[1,2-a]indol-2(1H)-yl)-1,5-dimethyl-1H-indole-2-carboxylic acid] was tested, and the GI50 [1, 3] was < 200 nM and the Ki [2] was < 1 nM.

`CCCn1cc(N2C[C@@H](C)n3c(c(CCCOc4cc(C)c(Cl)c(C)c4)c4ccc(Cl)c(-c5c(C)nn(C)c5C)c43)C2=O)c2cc(C(=O)O)ccc21` [Example 158, (R)-3-(7-Chloro-10-(3-(4-chloro-3,5-dimethylphenoxy)propyl)-4-methyl-1-oxo-6-(1,3,5-trimethyl-1H-pyrazol-4-yl)-3,4-dihydropyrazino[1,2-a]indol-2(1H)-yl)-1-propyl-1H-indole-5-carboxylic acid] was tested, and the GI50 [1, 3] was 480 nM and the Ki [2] was < 1 nM.

`Cc1cc(OCCCc2c3n(c4c(-c5c(C)ncnc5C)c(Cl)ccc24)[C@H](C)CN(c2cccc4cc(C(N)=O)n(C)c24)C3=O)cc(C)c1Cl` [Example 384, (R)-7-(7-Chloro-10-(3-(4-chloro-3,5-dimethylphenoxy)propyl)-6-(4,6-dimethylpyrimidin-5-yl)-4-methyl-1-oxo-3,4-dihydropyrazino[1,2-a]indol-2(1H)-yl)-1-methyl-1H-indole-2-carboxamide] was tested, and the GI50 [1, 3] was 910 nM and the Ki [2] was 6.8 nM.

Work on `COc1ccc(N2C[C@@H](C)n3c(c(CCCOc4cc(C)c(Cl)c(C)c4)c4ccc(Cl)c(-c5c(C)nn(C)c5C)c43)C2=O)c2c1c(C(=O)O)cn2C` [Example 445, (R)-7-(7-Chloro-10-(3-(4-chloro-3,5-dimethylphenoxy)propyl)-4-methyl-1-oxo-6-(1,3,5-trimethyl-1H-pyrazol-4-yl)-3,4-dihydropyrazino[1,2-a]indol-2(1H)-yl)-4-methoxy-1-methyl-1H-indole-3-carboxylic acid] yielded a GI50 [1, 3] of 820 nM and a Ki [2] of 2.2 nM.

For `Cc1nc(Cn2c(C(=O)O)cc3cccc(N4C[C@@H](C)n5c(c(CCCOc6cc(C)c(Cl)c(C)c6)c6ccc(Cl)c(-c7c(C)nn(C)c7C)c65)C4=O)c32)no1` [Example 314, 7-[(4R)-7-chloro-10-[3-(4-chloro-3,5-dimethyl-phenoxy)propyl]-4-methyl-1-oxo-6-(1,3,5-trimethylpyrazol-4-yl)-3,4-dihydropyrazino[1,2-a]indol-2-yl]-1-[(5-methyl-1,2,4-oxadiazol-3-yl)methyl]indole-2-carboxylic acid], the GI50 [1, 3] was 930 nM and the Ki [2] was < 1 nM.

For `Cc1cc(OCCCc2c3n(c4c(-c5c(C)n[nH]c5C)c(Cl)ccc24)CCCN(c2cc(C(=O)O)c4cnn(C)c4c2)C3=O)cc(C)c1Cl` [Example 95, 6-(8-Chloro-1-(3-(4-chloro-3,5-dimethylphenoxy)propyl)-7-(3,5-dimethyl-1H-pyrazol-4-yl)-1-oxo-4,5-dihydro-1H-[1,4]diazepino[1,2-a]indol-2(3H)-yl)-1-methyl-1H-indazole-4-carboxylic acid], the GI50 [1, 4] was 10000 nM and the Ki [2] was < 1 nM.

For `Cc1cc(OCCCc2c3n(c4c(-c5c(C)nn(C)c5C)c(Cl)ccc24)[C@H](C)CN(c2c(C(=O)O)ccc4ccccc24)C3=O)cc(C)c1Cl` [Example 190, (R)-1-(7-Chloro-10-(3-(4-chloro-3,5-dimethylphenoxy)propyl)-4-methyl-1-oxo-6-(1,3,5-trimethyl-1H-pyrazol-4-yl)-3,4-dihydropyrazino[1,2-a]indol-2(1H)-yl)-2-naphthoic acid], the GI50 [1, 3] was 2200 nM and the Ki [2] was < 1 nM.

`Cc1cc(OCCCc2c3n(c4c(-c5c(C)nn(C)c5C)c(Cl)ccc24)[C@H](C)CN(c2cc(Cl)cc4cc(C(=O)O)oc24)C3=O)cc(C)c1Cl` [Example 259, (R)-5-Chloro-7-(7-chloro-10-(3-(4-chloro-3,5-dimethylphenoxy)propyl)-4-methyl-1-oxo-6-(1,3,5-trimethyl-1H-pyrazol-4-yl)-3,4-dihydropyrazino[1,2-a]indol-2(1H)-yl)benzofuran-2-carboxylic acid] was tested, and the GI50 ([1]; read-out: GI50 on cellular proliferation of H929 human cancer cell lines, H929 cells, 72 h, Cell TiterGlo, 10% FBS) was 3500 nM and the Ki [2] was < 1 nM.

With `Cc1cc(OCCCc2c3n(c4c(-c5c(C)nn(C)c5C)c(Cl)ccc24)[C@H](C)CN(c2cccc4ccn(C)c24)C3=O)cc(C)c1Cl` [Example 234, (R)-7-Chloro-10-(3-(4-chloro-3,5-dimethylphenoxy)propyl)-4-methyl-2-(1-methyl-1H-indol-7-yl)-6-(1,3,5-trimethyl-1H-pyrazol-4-yl)-3,4-dihydropyrazino[1,2-a]indol-1(2H)-one] the GI50 [1, 3] was 1600 nM and the Ki [2] was < 1 nM.

Compound `Cc1cc(OCCCc2c3n(c4c(-c5c(C)nn(C)c5C)c(Cl)ccc24)[C@H](C)CN(c2cc(C(=O)O)cc4c2OCCO4)C3=O)cc(C)c1Cl` [Example 26, (R)-8-(7-chloro-10-(3-(4-chloro-3,5-dimethylphenoxy)propyl)-4-methyl-1-oxo-6-(1,3,5-trimethyl-1H-pyrazol-4-yl)-3,4-dihydropyrazino[1,2-a]indol-2(1H)-yl)-2,3-dihydrobenzo[b][1,4]dioxine-6-carboxylic acid] has a GI50 [1, 3] of 830 nM and a Ki [2] of 1.3 nM.

For `CCn1ccc2c(C(=O)O)cc(N3C[C@@H](C)n4c(c(CCCOc5cc(C)c(Cl)c(C)c5)c5ccc(Cl)c(-c6c(C)nn(C)c6C)c54)C3=O)cc21` [Example 99, (R)-6-(7-chloro-10-(3-(4-chloro-3,5-dimethylphenoxy)propyl)-4-methyl-1-oxo-6-(1,3,5-trimethyl-1H-pyrazol-4-yl)-3,4-dihydropyrazino[1,2-a]indol-2(1H)-yl)-1-ethyl-1H-indole-4-carboxylic acid], the GI50 [1, 4] was 2100 nM and the Ki [2] was < 1 nM.

For `Cc1ccc(Cn2c(C(=O)O)cc3cccc(N4C[C@@H](C)n5c(c(CCCOc6cc(C)c(Cl)c(C)c6)c6ccc(Cl)c(-c7c(C)nn(C)c7C)c65)C4=O)c32)nc1` [Example 363, (R)-7-(7-Chloro-10-(3-(4-chloro-3,5-dimethylphenoxy)propyl)-4-methyl-1-oxo-6-(1,3,5-trimethyl-1H-pyrazol-4-yl)-3,4-dihydropyrazino[1,2-a]indol-2(1H)-yl)-1-((5-methylpyridin-2-yl)methyl)-1H-indole-2-carboxylic acid], the GI50 [1, 3] was 1400 nM and the Ki [2] was 1.6 nM.
